Assay results from ChEMBL document CHEMBL1156407, “The antiplasmodial activity of isolates from Ajuga remota” (J Nat Prod, 2002).
Activity calls are given as the source filed them. The rule behind the calls is not given here.

What was measured:
[1] = Cytotoxicity against human A431 cells by MTT assay; assay type: cell-based, A-431; settings: read-out: ED50 (the source's name)
Plasmodium falciparum [2] = test: Antiplasmodial activity after 72 hrs against chloroquine-sensitive Plasmodium falciparum FCA10/GHA at 500 uM by LDH activity; assay type: functional, organism-based
Plasmodium falciparum [3] = test: Antiplasmodial activity after 72 hrs against chloroquine-sensitive Plasmodium falciparum FCA10/GHA as LDH activity; assay type: functional, organism-based
[4] = Selectivity index, ratio of ED50 for human A431 cells to IC50 for chloroquine-sensitive Plasmodium falciparum FCA10/GHA; assay type: functional, A-431

| Structure (SMILES) | CC50 [1] [µM] | Activity (Plasmodium falciparum [2]) | IC50 (Plasmodium falciparum [3]) [µM] | Ratio [4] |
| --- | --- | --- | --- | --- |
| CC(=O)O[C@@]1(C)C[C@@H](O)[C@]2(O)C=CO[C@@H](O[C@@H]3O[C@H](CO)[C@@H](O)[C@H](O)[C@H]3O)[C@@H]21 | 310 | inactive | – | – |
| CC(C)C/C=C/C[C@H]1CC[C@@H]2[C@]1(C)CCC1[C@]23C=C[C@]2(C[C@@H](O)CC[C@]12C)OO3 (some centres undefined) | > 23 | – | 8.2 | >3 |
| CC(=O)OC[C@@]12[C@@H](OC(C)=O)C[C@@H](C)[C@](C)(CCC3=CC(=O)OC3)[C@H]1CCC[C@]21CO1 [AJUGARIN I] | > 88 | – | 23 | >4 |
| O=c1[nH]cc(F)c(=O)[nH]1 [FLUOROURACIL] | 44 | – | – | – |
